Legend:
[1] = biological target: T1, NMDA NR2B subunit containing receptors (Rattus norvegicus, UniProt P35439+Q00960); assay: [3H]-Ro 25-6981 binding; conditions: rat brain membranes; 5 nM 3H-Ro 25-6981; indicates affinity for NMDA NR2B subunit containing receptors; read-out: Inhibition of [3H]-Ro 25-6981 binding IC50
T1 construct: Membranes were prepared by homogenization of the whole brain minus cerebellum and medulla oblongata; from tissue; host or cells: rat whole brain minus cerebellum and medulla oblongata, membrane preparation
T1 sequence (Q00960 27-1482, other chains not shown): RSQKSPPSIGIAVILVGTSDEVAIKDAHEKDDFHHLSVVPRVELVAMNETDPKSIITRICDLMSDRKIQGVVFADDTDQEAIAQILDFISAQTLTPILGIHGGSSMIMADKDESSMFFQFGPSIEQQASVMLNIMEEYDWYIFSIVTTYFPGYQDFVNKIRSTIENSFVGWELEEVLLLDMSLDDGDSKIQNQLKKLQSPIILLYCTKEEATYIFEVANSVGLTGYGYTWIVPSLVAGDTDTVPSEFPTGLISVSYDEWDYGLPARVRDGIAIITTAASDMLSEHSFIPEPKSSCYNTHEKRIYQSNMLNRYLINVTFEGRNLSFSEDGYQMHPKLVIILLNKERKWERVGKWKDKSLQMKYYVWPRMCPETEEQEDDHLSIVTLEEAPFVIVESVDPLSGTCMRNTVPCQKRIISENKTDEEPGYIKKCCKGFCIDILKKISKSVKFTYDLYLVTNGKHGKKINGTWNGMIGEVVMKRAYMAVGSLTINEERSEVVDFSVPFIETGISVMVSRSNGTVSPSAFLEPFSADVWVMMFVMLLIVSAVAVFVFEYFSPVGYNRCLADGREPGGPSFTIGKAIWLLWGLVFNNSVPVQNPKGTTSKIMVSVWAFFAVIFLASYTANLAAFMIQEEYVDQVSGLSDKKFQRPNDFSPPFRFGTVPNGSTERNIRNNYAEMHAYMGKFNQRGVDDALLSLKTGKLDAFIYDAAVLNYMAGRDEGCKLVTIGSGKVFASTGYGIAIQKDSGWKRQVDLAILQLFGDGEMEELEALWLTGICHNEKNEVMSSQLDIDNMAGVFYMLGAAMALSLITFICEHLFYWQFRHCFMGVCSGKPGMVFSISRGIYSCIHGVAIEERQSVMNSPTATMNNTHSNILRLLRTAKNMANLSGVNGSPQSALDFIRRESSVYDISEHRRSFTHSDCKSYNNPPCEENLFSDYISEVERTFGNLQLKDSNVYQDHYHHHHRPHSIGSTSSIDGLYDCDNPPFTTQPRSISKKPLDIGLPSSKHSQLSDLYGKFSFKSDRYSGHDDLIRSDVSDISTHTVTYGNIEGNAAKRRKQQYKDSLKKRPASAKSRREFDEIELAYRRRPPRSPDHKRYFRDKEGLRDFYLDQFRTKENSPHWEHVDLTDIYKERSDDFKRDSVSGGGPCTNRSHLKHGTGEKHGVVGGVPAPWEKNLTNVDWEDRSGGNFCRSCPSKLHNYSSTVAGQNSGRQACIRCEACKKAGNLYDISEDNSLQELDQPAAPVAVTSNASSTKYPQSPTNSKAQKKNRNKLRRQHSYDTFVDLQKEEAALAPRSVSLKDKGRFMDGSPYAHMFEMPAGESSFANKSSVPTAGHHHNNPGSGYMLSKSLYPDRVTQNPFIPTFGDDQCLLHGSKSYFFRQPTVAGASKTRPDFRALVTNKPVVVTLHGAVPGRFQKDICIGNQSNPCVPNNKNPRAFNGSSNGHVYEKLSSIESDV
Experimental: 3H-Ro 25-6981 Binding(Ro 25-6981 is [R-(R*,S*)]-α-(4-Hydroxy-phenyl)-β-methyl-4-(phenyl-methyl)-1-piperidine propanol)
(§1) Male Füllinsdorf albino rats weighing between 150-200 g were used. Membranes were prepared by homogenization of the whole brain minus cerebellum and medulla oblongata with a Polytron (10,000 rpm, 30 seconds), in 25 volumes of a cold Tris-HCl 50 mM, EDTA 10 mM, pH 7.1 buffer. The homogenate was centrifuged at 48.000 g for 10 minutes at 4° C. The pellet was resuspended using the Polytron in the same volume of buffer and the homogenate was incubated at 37° C. for 10 minutes. After centrifugation the pellet was homogenized in the same buffer and frozen at −80° C. for at least 16 hours but not more than 10 days. For the binding assay the homogenate was thawed at 37° C., centrifuged and the pellet was washed three times as above in a Tris-HCl 5 mM, pH 7.4 cold buffer. The final pellet was resuspended in the same buffer and used at a final concentration of 200 μg of protein/ml.
[3H]-Ro 25-6981 binding experiments were performed using a Tris-HCl 50 mM, pH 7.4 buffer. For displacement experiments 5 nM of 3H-Ro 25-6981 were used and non specific binding was measured using 10 μM of tetrahydroisoquinoline and usually it accounts for 10% of the total. The incubation time was 2 hours at 4° C. and the assay was stopped by filtration on Whatman GF/B glass fiber filters (Unifilter-96, Packard, Zürich, Switzerland). The filters were washed 5 times with cold buffer. The radioactivity on the filter was counted on a Packard Top-count microplate scintillation counter after addition of […] of microscint 40 (Canberra Packard S.A., Zürich, Switzerland).
The effects of compounds were measured using a minimum of 8 concentrations and repeated at least once. The pooled normalized values were analyzed using a non-linear regression calculation program which provide IC50 with their relative upper and lower 95% confidence limits (RS1, BBN, USA).

α1-adrenergic receptors = assay: [3H]-Prazosin binding; conditions: rat brain membranes; 0.2 nM 3H-Prazosine; indicates affinity for α1-adrenergic receptors; read-out: Inhibition of [3H]-Prazosin binding IC50
Experimental: as §1, with “a Plytron” for “a Polytron”, “[…]” for “200 μg”
3H-Prazosin binding experiments were performed using a Tris-HCl 50 mM, pH 7.4 buffer. For displacement experiments 0.2 nM of 3H-Prazosine were used and non specific binding was measured using […] of Chlorpromazine. The incubation time was 30 minutes at room temperature and the assay was stopped by filtration on Whatman GF/B glass fiber filters (Unifilter-96, Canberra Packard S.A., Zürich, Switzerland). The filters were washed 5 times with cold buffer. The radioactivity on the filter was counted on a Packard Top-count microplate scintillation counter after addition of […] of microscint 40 (Canberra Packard S.A., Zürich, Switzerland). The effects of compounds were measured using a minimum of 8 concentrations and repeated at least once. The pooled normalized values were analyzed using a non-linear regression calculation program which provide IC50 with their relative upper and lower 95% confidence limits (RS1, BBN, USA).

hERG K+ channel = biological target: T2, hERG K+ channel (Homo sapiens, UniProt Q12809); assay: Inhibition of the hERG K+ channel (whole-cell patch-clamp, CHO cells); assay type: cell-based; conditions: CHO cells stably transfected with hERG (pcDNA3-hERG), pH 7.3; average effect at 10 μM; recombinant human ERG channels in CHO cells; read-out: Inhibition of hERG K+ current, effect (%) at 10 μM
T2 construct: expressed in transfected cells
T2 sequence (Q12809 whole entry): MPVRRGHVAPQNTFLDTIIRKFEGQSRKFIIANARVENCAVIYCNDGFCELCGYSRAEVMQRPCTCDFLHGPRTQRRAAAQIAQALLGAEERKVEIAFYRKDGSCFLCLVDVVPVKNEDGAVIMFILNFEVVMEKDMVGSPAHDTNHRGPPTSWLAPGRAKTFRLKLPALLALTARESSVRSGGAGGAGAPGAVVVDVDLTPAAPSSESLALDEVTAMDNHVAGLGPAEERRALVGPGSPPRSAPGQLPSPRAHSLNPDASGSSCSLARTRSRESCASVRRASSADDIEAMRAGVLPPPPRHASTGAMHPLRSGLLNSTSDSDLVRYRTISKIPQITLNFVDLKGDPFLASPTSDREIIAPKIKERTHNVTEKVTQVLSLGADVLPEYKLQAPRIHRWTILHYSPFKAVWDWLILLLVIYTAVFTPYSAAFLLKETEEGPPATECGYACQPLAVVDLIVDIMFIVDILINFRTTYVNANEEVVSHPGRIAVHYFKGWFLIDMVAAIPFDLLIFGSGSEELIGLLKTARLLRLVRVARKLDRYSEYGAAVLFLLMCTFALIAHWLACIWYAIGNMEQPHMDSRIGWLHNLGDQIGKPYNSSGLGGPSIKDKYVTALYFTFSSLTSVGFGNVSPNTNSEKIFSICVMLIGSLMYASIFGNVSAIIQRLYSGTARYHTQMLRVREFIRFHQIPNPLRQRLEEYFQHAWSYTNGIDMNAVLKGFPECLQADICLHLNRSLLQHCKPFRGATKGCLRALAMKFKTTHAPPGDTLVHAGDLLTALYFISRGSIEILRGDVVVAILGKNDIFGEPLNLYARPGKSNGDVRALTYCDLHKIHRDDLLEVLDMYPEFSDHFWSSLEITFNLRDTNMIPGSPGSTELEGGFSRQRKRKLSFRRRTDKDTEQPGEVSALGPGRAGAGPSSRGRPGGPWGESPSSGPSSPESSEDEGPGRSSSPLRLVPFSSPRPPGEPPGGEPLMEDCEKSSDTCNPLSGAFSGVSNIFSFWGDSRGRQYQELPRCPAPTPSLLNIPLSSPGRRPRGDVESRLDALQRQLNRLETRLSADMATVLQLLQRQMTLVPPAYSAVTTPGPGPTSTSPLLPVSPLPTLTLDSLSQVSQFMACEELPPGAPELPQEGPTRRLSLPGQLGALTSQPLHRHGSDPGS
Description: (§2) Methods for Studying the Inhibition of the hERG K^+ Channel
(§3) CHO cells were stably transfected by a pcDNA3-hERG expression vector containing a SV40-neo cassette for selection. Cells were thinly plated into 35 mm dishes and used for the electrophysiological experiment ½-3 d later.
(§4) During the experiment the cells were continuously superfused with an extracellular saline containing (in mM): NaCl 150, KCl 10, MgCl2 1, CaCl2 3, HEPES 10 (pH=7.3 by addition of NaOH). A 10-mM stock solution of the test compound was made from pure DMSO. Test solution were made by at least 1000-fold dilution of the stock solution into the extracellular saline. The glass micropipettes for whole-cell patch-clamp recording were filled with a containing (in mM): KCl 110, BAPTA 10, HEPES 10, MgCl2 4.5, Na2ATP 4, Na2-phosphocreatine 20, creatine kinase 200 μg/ml (pH=7.3 by addition of KOH).
(§5) The whole-cell configuration of the patch-clamp technique was used for the experiments. Cells were clamped to −80 mV holding potential and repetitively (0.1 Hz) stimulated by a voltage pulse pattern consisting of a 1-s conditioning depolarisation to 20 mV immediately followed by a hyperpolarisation of 50 ms duration to −120 mV. The membrane current was recorded for at least 3 min (18 stimuli) before compound application (control), and then for another two 3-min intervals in presence of two different concentrations of the compound. The current amplitudes (Itest) at the end of each compound application interval were divided by the mean current amplitude (Icontrol) during the initial control period to calculate the percentage effect of the compound:
(§6) effect (%)=(1-Itest/Icontrol)·100.
(§7) Compound concentrations were chosen in decade steps (usually 1 and 10 μM) around the expected 50% inhibitory concentration (IC50). If after the first experiment the IC50 turned out to lie outside the range between the two chosen concentrations the concentrations were changed to bracket the IC50 in the following experiments. The compound was tested on at least three cells. Its IC50 was then estimated from the population of all percent-effect values by non-linear regression using the function […]). Concentrations higher than 10 μM were not tested.

[2] = biological target: T3, recombinant human ERG potassium channels (Homo sapiens, UniProt Q12809); assay: as above; assay type: cell-based; conditions: recombinant human ERG channels expressed in CHO cells; concentrations higher than 10 μM not tested; read-out: Inhibition of hERG K+ current IC50
T3 construct: expressed in transfected cells
T3 sequence (Q12809 whole entry): as above
Description: as §2, §3, §4, §5, §6, §7

IC50 [1] [µM] | IC50 (α1-adrenergic receptors) [µM] | SMILES | inhibition at 3 min, 10 µM (hERG K+ channel) [%] | IC50 [2] [µM]
0.045 | 27 | Oc1ccc(OCCN2CC[C@](O)(Cc3ccccc3)[C@H](O)C2)cc1 (racemic) [I (racemate), (3R,4R) and (3S,4S)-4-benzyl-1-[2-(4-hydroxy-phenoxy)-ethyl]-piperidine-3,4-diol] | 45 | > 10
0.01 | 3.5 | Cc1ccc(CC2(O)CCN(CCOc3ccc(O)cc3)CC2)cc1 [EP 824098, 1-[2-(4-hydroxy-phenoxy)-ethyl]-4-(4-methyl-benzyl)-piperidin-4-ol, reference compound] | – | 0.69
0.038 | 25 | Oc1ccc(OCCN2CC[C@](O)(Cc3ccccc3)[C@H](O)C2)cc1 [I-1 (R,R), (3R,4R)-4-benzyl-1-[2-(4-hydroxy-phenoxy)-ethyl]-piperidine-3,4-diol] | 44 | > 10
0.039 | 30 | Oc1ccc(OCCN2CC[C@@](O)(Cc3ccccc3)[C@@H](O)C2)cc1 [I-2 (S,S), (3S,4S)-4-benzyl-1-[2-(4-hydroxy-phenoxy)-ethyl]-piperidine-3,4-diol] | 40 | > 10
